For assay [1], the target named is T1, A disintegrin and metalloproteinase with thrombospondin motifs 4 (Homo sapiens) (UniProt O75173).
T1 sequence (whole entry): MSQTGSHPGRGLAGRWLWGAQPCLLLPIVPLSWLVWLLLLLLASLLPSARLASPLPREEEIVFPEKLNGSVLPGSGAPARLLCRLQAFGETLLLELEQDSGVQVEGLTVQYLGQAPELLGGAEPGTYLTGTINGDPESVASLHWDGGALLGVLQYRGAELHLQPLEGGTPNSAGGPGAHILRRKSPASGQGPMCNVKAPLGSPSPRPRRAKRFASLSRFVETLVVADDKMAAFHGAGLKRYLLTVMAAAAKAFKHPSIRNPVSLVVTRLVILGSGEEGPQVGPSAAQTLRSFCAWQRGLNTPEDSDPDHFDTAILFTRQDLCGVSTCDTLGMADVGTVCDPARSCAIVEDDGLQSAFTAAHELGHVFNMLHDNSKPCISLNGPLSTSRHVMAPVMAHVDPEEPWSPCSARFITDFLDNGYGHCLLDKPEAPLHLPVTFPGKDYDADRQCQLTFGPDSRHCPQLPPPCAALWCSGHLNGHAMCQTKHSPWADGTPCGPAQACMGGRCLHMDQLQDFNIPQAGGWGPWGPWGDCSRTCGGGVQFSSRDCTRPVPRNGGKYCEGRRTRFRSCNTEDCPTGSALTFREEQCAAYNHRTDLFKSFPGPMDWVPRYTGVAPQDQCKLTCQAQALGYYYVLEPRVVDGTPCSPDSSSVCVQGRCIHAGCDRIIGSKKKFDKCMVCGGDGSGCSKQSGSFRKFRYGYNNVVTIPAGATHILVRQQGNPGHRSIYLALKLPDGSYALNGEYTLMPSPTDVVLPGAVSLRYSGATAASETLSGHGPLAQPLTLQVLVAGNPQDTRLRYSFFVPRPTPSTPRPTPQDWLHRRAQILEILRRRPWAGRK
As to the kind of experiment: Inhibition of human recombinant ADAMTS4 at 1 uM by fluorimetric assay.

Assay [2] has as its target T1, A disintegrin and metalloproteinase with thrombospondin motifs 4 (Homo sapiens). Nature of the assay: Inhibition of human recombinant ADAMTS4 at 10 uM by fluorimetric assay.
Assay [3] can be described thus: Inhibition of aggrecanase.
For assay [4], the target named is T1, A disintegrin and metalloproteinase with thrombospondin motifs 4 (Homo sapiens). As to the kind of experiment: (§1) Inhibition of human recombinant ADAMTS4 by fluorimetric assay.
The target of assay [5] is T2, A disintegrin and metalloproteinase with thrombospondin motifs 4 (Homo sapiens, UniProt O75173).
T2 sequence (O75173 whole entry): T1 sequence (whole entry)
The description is as §1.

Assay [6] concerns the target T3, A disintegrin and metalloproteinase with thrombospondin motifs 5 (Homo sapiens, UniProt Q9UNA0).
T3 sequence (Q9UNA0 whole entry): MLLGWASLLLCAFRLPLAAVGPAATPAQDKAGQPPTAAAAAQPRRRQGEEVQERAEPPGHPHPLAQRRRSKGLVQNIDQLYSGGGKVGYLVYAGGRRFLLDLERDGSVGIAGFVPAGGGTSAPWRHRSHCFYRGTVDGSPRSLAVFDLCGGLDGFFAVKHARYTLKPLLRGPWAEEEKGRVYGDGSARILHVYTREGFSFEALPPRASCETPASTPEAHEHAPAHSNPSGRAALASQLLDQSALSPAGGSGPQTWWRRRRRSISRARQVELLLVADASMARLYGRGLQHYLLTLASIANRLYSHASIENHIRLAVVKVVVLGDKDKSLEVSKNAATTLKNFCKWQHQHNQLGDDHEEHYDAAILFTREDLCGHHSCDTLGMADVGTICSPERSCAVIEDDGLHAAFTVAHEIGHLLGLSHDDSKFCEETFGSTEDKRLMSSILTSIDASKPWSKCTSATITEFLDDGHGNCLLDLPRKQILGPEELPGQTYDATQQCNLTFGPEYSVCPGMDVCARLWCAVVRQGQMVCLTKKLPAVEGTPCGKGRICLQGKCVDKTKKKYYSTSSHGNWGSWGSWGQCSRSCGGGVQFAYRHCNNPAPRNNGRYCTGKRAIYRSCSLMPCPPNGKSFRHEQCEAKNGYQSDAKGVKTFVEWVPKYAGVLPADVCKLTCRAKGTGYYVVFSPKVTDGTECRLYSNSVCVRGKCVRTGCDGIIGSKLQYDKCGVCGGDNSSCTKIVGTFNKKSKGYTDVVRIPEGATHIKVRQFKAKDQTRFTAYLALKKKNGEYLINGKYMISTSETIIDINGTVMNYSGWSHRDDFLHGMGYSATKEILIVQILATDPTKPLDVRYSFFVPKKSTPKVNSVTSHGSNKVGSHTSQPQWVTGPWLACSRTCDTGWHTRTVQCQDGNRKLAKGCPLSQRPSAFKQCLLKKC
As to the kind of experiment: Inhibition of human recombinant ADAMTS5 by fluorimetric assay.

By inhibition is commonly meant the drop in the measured response relative to a control, in per cent. Consider `O=C(O)CC[C@H](NC(=O)c1ccc(-c2ccccc2)cc1)c1nnc(CCc2ccc(O)cc2)o1`, for which the values for the inhibition in assay [1] and in assay [2] were 22% and 51%, respectively.

For `O=C(O)CC[C@H](NC(=O)c1ccc(-c2ccncc2)cc1)c1nnc(CCc2ccccc2)o1`, the inhibition turned out to be 8% in assay [1] and 18% in assay [2].

A word on the IC50: it is the point on the concentration scale where inhibition reaches its midpoint. In assay [3], `O=C(C[C@@H](Cc1ccc(-c2ccc3c(c2)OCO3)cc1)C(=O)N[C@@H]1c2ccccc2C[C@@H]1O)NO` had a concentration for half-maximal inhibition (IC50) of 0.0015 µM.

`CC(C)(c1ccccc1)c1nnc([C@H](CCC(=O)O)NC(=O)c2ccc(-c3ccccc3)cc2)o1`: the values for the inhibition in assay [1] and in assay [2] were -5% and 5%, respectively.

For `CC(C)(Cc1ccccc1)c1nnc([C@H](CCC(=O)O)NC(=O)c2ccc(-c3ccccc3)cc2)o1`, the inhibition was 23% in assay [1] and 47% in assay [2].

Take `O=C(O)CC[C@H](NC(=O)c1ccc(-c2ccccc2)cc1)c1nnc(Cc2ccccc2)o1`: the inhibition in assay [1] amounted to 17%; in assay [2], 26%.

In the case of `Cc1ccc(CCc2nnc([C@H](CCC(=O)O)NC(=O)c3ccc(-c4ccccc4)cc3)o2)cc1`, the inhibition worked out at 27% in assay [1] and 56% in assay [2].

As to `COc1ccc(CCc2nnc([C@H](CCC(=O)O)NC(=O)c3ccc(-c4ccccc4)cc3)o2)cc1`, the inhibition in assay [1] was 35%; in assay [4], “Dose-dependent effect”; in assay [2], 66%. Besides, the IC50 in assay [5] amounted to 4.9 µM; in assay [6], 24.3 µM.

Consider `O=C(O)CC[C@H](NC(=O)c1ccc(-c2ccccc2)cc1)c1nnc(C2(c3ccccc3)CC2)o1`, for which the inhibition in assay [1] stood at 5%; in assay [2] it was 20%.

`O=C(O)CC[C@H](NC(=O)c1ccc(-c2cccnc2)cc1)c1nnc(CCc2ccccc2)o1`: the figures for the inhibition in assay [1] and in assay [2] were 12% and 39%, respectively.

As to `COc1ccc(Cc2nnc([C@H](CCC(=O)O)NC(=O)c3ccc(-c4ccccc4)cc3)o2)cc1`, the inhibition turned out to be 5% in assay [1] and 21% in assay [2].

With `O=C(O)CC[C@H](NC(=O)c1ccc(-c2ccccc2)cc1)c1nnc(CCc2ccccc2)o1`, the inhibition in assay [1] was 30%; in assay [4] it was “Dose-dependent effect”; in assay [2] it was 59%. For the same compound, the IC50 was 9.7 µM in assay [5] and 57.3 µM in assay [6].

For `CC(C)(Cc1nnc([C@H](CCC(=O)O)NC(=O)c2ccc(-c3ccccc3)cc2)o1)c1ccccc1`, the inhibition in assay [1] was 19%; in assay [2] it was 45%.

Take `COc1cc(Cc2nnc([C@H](CCC(=O)O)NC(=O)c3ccc(-c4ccccc4)cc3)o2)cc(OC)c1OC`: the inhibition in assay [1] was 47%; in assay [4], “Dose-dependent effect”; in assay [2], 86%. For the same compound, the values for the IC50 in assay [5] and in assay [6] were 1.2 µM and 0.8 µM, respectively.

On to `COc1cc(CCc2nnc([C@H](CCC(=O)O)NC(=O)c3ccc(-c4ccccc4)cc3)o2)cc(OC)c1OC`, for which the values for the inhibition in assay [1], in assay [4] and in assay [2] were 35%, “Dose-dependent effect” and 74%, respectively. Besides, the IC50 in assay [5] came out at 3.3 µM; in assay [6], 4.3 µM.

The values are drawn from ChEMBL document CHEMBL1806479, “Structure-activity study on a series of α-glutamic acid scaffold based compounds as new ADAMTS inhibitors” (Bioorg Med Chem Lett, 2011).
